# Measured values published in PubChem BioAssay AID1963445 (Molecular Pharmacology Branch, DTP, NCI, 2024).
# Test system: MCF7 complex spheroid growth, % test/control
# Assay: Anticancer human tumor MCF7 cell line growth inhibition [Asc];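 note: spheroids exposed to compounds for 7 days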;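 for viability, T/C: 100% = DMSO vehicle control wells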
# Settings: for IC50: curve of first compound; for viability, T/C: stronger effect = lower value
# How it was run: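 Concentration series start at each agent's clinical Cmax, or at 10 microM when none is established, and drop in half-log steps; agents are applied alone or together to complex spheroids built with HUVEC and hMSC.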
structure (smiles),measurement,setting,value
C=C(F)C(=O)N1CCN(c2nc(OCC3CCCN3C)nc3c2CCN(c2cccc4cccc(Cl)c24)C3)CC1CC#N (configuration not stated) + CCN1C(C(=O)NC23CCC(C(=O)O)(CC2)CC3)C(c2cccc(Cl)c2F)C2(C(=O)Nc3cc(Cl)ccc32)C12CCCCC2,IC50,second compound 0.00949 µM,3.14 µM
same,IC50,second compound 0.03 µM,3.27 µM
same,IC50,second compound 0.0949 µM,1.18 µM
same,IC50,second compound 0.3 µM,< 0.0316 µM
same,IC50,second compound 0.949 µM,< 0.0316 µM
same,IC50,second compound 3 µM,< 0.0316 µM
same,"viability, T/C","second compound 0.00949 µM, first compound 0.0316 µM",103%
same,"viability, T/C","second compound 0.00949 µM, first compound 0.1 µM",115%
same,"viability, T/C","second compound 0.00949 µM, first compound 0.316 µM",109%
same,"viability, T/C","second compound 0.00949 µM, first compound 1 µM",89.8%
same,"viability, T/C","second compound 0.00949 µM, first compound 3.16 µM",50.4%
same,"viability, T/C","second compound 0.00949 µM, first compound 10 µM",0.16%
same,"viability, T/C","second compound 0.03 µM, first compound 0.0316 µM",104%
same,"viability, T/C","second compound 0.03 µM, first compound 0.1 µM",77.1%
same,"viability, T/C","second compound 0.03 µM, first compound 0.316 µM",109%
same,"viability, T/C","second compound 0.03 µM, first compound 1 µM",69.3%
same,"viability, T/C","second compound 0.03 µM, first compound 3.16 µM",53.8%
same,"viability, T/C","second compound 0.03 µM, first compound 10 µM",0.23%
same,"viability, T/C","second compound 0.0949 µM, first compound 0.0316 µM",50.4%
same,"viability, T/C","second compound 0.0949 µM, first compound 0.1 µM",52.5%
same,"viability, T/C","second compound 0.0949 µM, first compound 0.316 µM",50.5%
same,"viability, T/C","second compound 0.0949 µM, first compound 1 µM",57.5%
same,"viability, T/C","second compound 0.0949 µM, first compound 3.16 µM",33.6%
same,"viability, T/C","second compound 0.0949 µM, first compound 10 µM",0.14%
same,"viability, T/C","second compound 0.3 µM, first compound 0.0316 µM",30.5%
same,"viability, T/C","second compound 0.3 µM, first compound 0.1 µM",28%
same,"viability, T/C","second compound 0.3 µM, first compound 0.316 µM",34.2%
same,"viability, T/C","second compound 0.3 µM, first compound 1 µM",34.8%
same,"viability, T/C","second compound 0.3 µM, first compound 3.16 µM",10.5%
same,"viability, T/C","second compound 0.3 µM, first compound 10 µM",0.24%
same,"viability, T/C","second compound 0.949 µM, first compound 0.0316 µM",20.6%
same,"viability, T/C","second compound 0.949 µM, first compound 0.1 µM",20.7%
same,"viability, T/C","second compound 0.949 µM, first compound 0.316 µM",28.5%
same,"viability, T/C","second compound 0.949 µM, first compound 1 µM",17.1%
same,"viability, T/C","second compound 0.949 µM, first compound 3.16 µM",2.09%
same,"viability, T/C","second compound 0.949 µM, first compound 10 µM",0.2%
same,"viability, T/C","second compound 3 µM, first compound 0.0316 µM",15.2%
same,"viability, T/C","second compound 3 µM, first compound 0.1 µM",15.4%
same,"viability, T/C","second compound 3 µM, first compound 0.316 µM",14.1%
same,"viability, T/C","second compound 3 µM, first compound 1 µM",11.8%
same,"viability, T/C","second compound 3 µM, first compound 3.16 µM",2.7%
same,"viability, T/C","second compound 3 µM, first compound 10 µM",0.44%
